From patent US6737383B1, “Herbicidal oxadiazolidines” (priority 1999, dated 2004)

Legend:
[1] = test system: Alexandergrass; assay: Test D Alexandergrass; format: in vivo, Brachiaria plantaginea; conditions: Preemergence, 0 to 100 scale
Procedure, shortened: (§1)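 Scoring used a 0–100 visual injury scale, with 0 meaning no effect and 100 complete control, assessed 14–21 days after application alongside untreated pots. Preemergence treatments went onto sandy loam surfaces of separately potted seeds within a day of sowing.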

[2] = test system: bermuda-grass; assay: Test D bermudagrass; format: in vivo, Cynodon dactylon; conditions: Preemergence, 0 to 100 scale
Procedure, shortened: as §1

[3] = test system: common groundsel; assay: Test D common groundsel; format: in vivo, Senecio vulgaris; conditions: Preemergence, 0 to 100 scale
Procedure, shortened: as §1

[4] = test system: dallisgrass; assay: Test D dallisgrass; format: in vivo, Paspalum dilatatum; conditions: Preemergence, 0 to 100 scale
Procedure, shortened: as §1

[5] = test system: goosegrass; assay: Test D goosegrass; format: in vivo, Eleusine indica; conditions: Preemergence, 0 to 100 scale
Procedure, shortened: as §1

[6] = test system: guineagrass; assay: Test D guineagrass; format: in vivo, Panicum maximum; conditions: Preemergence, 0 to 100 scale
Procedure, shortened: as §1

[7] = test system: itchgrass; assay: Test D itchgrass; format: in vivo, Rottboellia exaltata; conditions: Preemergence, 0 to 100 scale
Procedure, shortened: as §1

[8] = test system: Johnson grass; assay: Test D Johnson grass; format: in vivo, Sorghum halepense; conditions: Preemergence, 0 to 100 scale
Procedure, shortened: as §1

[9] = test system: large crabgrass; assay: Test D large crabgrass; format: in vivo, Digitaria sanguinalis; conditions: Preemergence, 0 to 100 scale
Procedure, shortened: as §1

[10] = test system: pitted morningglory; assay: Test D pitted morningglory; format: in vivo, Ipomoea lacunosa; conditions: Preemergence, 0 to 100 scale
Procedure, shortened: as §1

[11] = test system: purple nutsedge; assay: Test D purple nutsedge; format: in vivo, Cyperus rotundus; conditions: Preemergence, 0 to 100 scale
Procedure, shortened: as §1

[12] = test system: sandbur; assay: Test D sandbur; format: in vivo, Cenchrus echinatus; conditions: Preemergence, 0 to 100 scale
Procedure, shortened: as §1

[13] = test system: Spanishneedles; assay: Test D Spanishneedles; format: in vivo, Bidens bipinnata; conditions: Preemergence, 0 to 100 scale
Procedure, shortened: as §1

[14] = test system: surinam grass; assay: Test D surinam grass; format: in vivo, Brachiaria decumbens; conditions: Preemergence, 0 to 100 scale
Procedure, shortened: as §1

[15] = test system: tall mallow; assay: Test D tall mallow; format: in vivo, Malva sylvestris; conditions: Preemergence, 0 to 100 scale
Procedure, shortened: as §1

[16] = test system: Green foxtail; assay: Test D green foxtail; format: in vivo; conditions: Preemergence, 0 to 100 scale
Procedure, shortened: as §1

[17] = test system: Green foxtail; assay: Test D green foxtail; format: in vivo
Procedure, shortened: as §1

[18] = Rate 16 g/ha, 0 no injury, 100 complete control
[19] = Rate 32 g/ha, 0 no injury, 100 complete control
[20] = Rate 64 g/ha, 0 no injury, 100 complete control
[21] = Rate 125 g/ha, 0 no injury, 100 complete control
[22] = Rate 64 g/ha, Preemergence; 0 to 100 scale, 0 no injury, 100 complete control
[23] = Rate 125 g/ha, Preemergence; 0 to 100 scale, 0 no injury, 100 complete control

CC(C)N(C(=O)n1oc(=O)n(C(C)C)c1=O)c1ccc(F)cc1 [Compound 131]
Plant response rating, Alexandergrass [1, 18]: 20 | Plant response rating, Alexandergrass [1, 19]: 90 | Plant response rating, Alexandergrass [1, 20]: 98 | Plant response rating, Alexandergrass [1, 21]: 100 | Plant response rating, Alexandergrass ([1]; Rate 250 g/ha): 100 | Plant response rating, Alexandergrass ([1]; Rate 500 g/ha): 100 | Plant response rating, Bermudagrass [2, 18]: 100 | Plant response rating, Bermudagrass [2, 19]: 100 | Plant response rating, Bermudagrass [2, 20]: 100 | Plant response rating, Bermudagrass [2, 21]: 100 | Plant response rating, Bermudagrass ([2]; Rate 250 g/ha): 100 | Plant response rating, Bermudagrass ([2]; Rate 500 g/ha): 100 | Plant response rating, Com. groundsel [3, 18]: 75 | Plant response rating, Com. groundsel [3, 19]: 75 | Plant response rating, Com. groundsel [3, 20]: 85 | Plant response rating, Com. groundsel [3, 21]: 100 | Plant response rating, Com. groundsel ([3]; Rate 250 g/ha): 100 | Plant response rating, Com. groundsel ([3]; Rate 500 g/ha): 100 | Plant response rating, Dallisgrass [4, 18]: 85 | Plant response rating, Dallisgrass [4, 19]: 95 | Plant response rating, Dallisgrass [4, 20]: 100 | Plant response rating, Dallisgrass [4, 21]: 100 | Plant response rating, Dallisgrass ([4]; Rate 250 g/ha): 100 | Plant response rating, Dallisgrass ([4]; Rate 500 g/ha): 100 | Plant response rating, Goosegrass [5, 18]: 75 | Plant response rating, Goosegrass [5, 19]: 98 | Plant response rating, Goosegrass [5, 20]: 100 | Plant response rating, Goosegrass [5, 21]: 100 | Plant response rating, Goosegrass ([5]; Rate 250 g/ha): 100 | Plant response rating, Goosegrass ([5]; Rate 500 g/ha): 100 | Plant response rating, Guineagrass [6, 18]: 0 | Plant response rating, Guineagrass [6, 19]: 100 | Plant response rating, Guineagrass [6, 20]: 100 | Plant response rating, Guineagrass [6, 21]: 100 | Plant response rating, Guineagrass ([6]; Rate 250 g/ha): 100 | Plant response rating, Guineagrass ([6]; Rate 500 g/ha): 100 | Plant response rating, Itchgrass [7, 18]: 30 | Plant response rating, Itchgrass [7, 19]: 50 | Plant response rating, Itchgrass [7, 20]: 90 | Plant response rating, Itchgrass [7, 21]: 90 | Plant response rating, Itchgrass ([7]; Rate 250 g/ha): 100 | Plant response rating, Itchgrass ([7]; Rate 500 g/ha): 100 | Plant response rating Johnsongrass [8, 18]: 10 | Plant response rating Johnsongrass [8, 19]: 40 | Plant response rating Johnsongrass [8, 20]: 65 | Plant response rating Johnsongrass [8, 21]: 90 | Plant response rating Johnsongrass ([8]; Rate 250 g/ha): 98 | Plant response rating Johnsongrass ([8]; Rate 500 g/ha): 100 | Plant response rating Large crabgrass [9, 18]: 100 | Plant response rating Large crabgrass [9, 19]: 100 | Plant response rating Large crabgrass [9, 20]: 100 | Plant response rating Large crabgrass [9, 21]: 100 | Plant response rating Large crabgrass ([9]; Rate 250 g/ha): 100 | Plant response rating Large crabgrass ([9]; Rate 500 g/ha): 100 | Plant response rating, P. morninglory [10, 18]: 0 | Plant response rating, P. morninglory [10, 19]: 0 | Plant response rating, P. morninglory [10, 20]: 0 | Plant response rating, P. morninglory [10, 21]: 50 | Plant response rating, P. morninglory ([10]; Rate 250 g/ha): 85 | Plant response rating, P. morninglory ([10]; Rate 500 g/ha): 100 | Plant response rating, Purple nutsedge [11, 18]: 0 | Plant response rating, Purple nutsedge [11, 19]: 0 | Purple nutsedge plant response rating [11, 20]: 40 | Purple nutsedge plant response rating [11, 21]: 60 | Plant response rating, Purple nutsedge ([11]; Rate 250 g/ha): 85 | Plant response rating, Purple nutsedge ([11]; Rate 500 g/ha): 85 | Plant response rating, Sandbur [12, 18]: 0 | Plant response rating, Sandbur [12, 19]: 60 | Sandbur plant response rating [12, 20]: 85 | Sandbur plant response rating [12, 21]: 100 | Plant response rating, Sandbur ([12]; Rate 250 g/ha): 100 | Plant response rating, Sandbur ([12]; Rate 500 g/ha): 100 | Plant response rating, Spanishneedles [13, 18]: 0 | Plant response rating, Spanishneedles [13, 19]: 0 | Spanishneedles plant response rating [13, 20]: 40 | Spanishneedles plant response rating [13, 21]: 60 | Plant response rating, Spanishneedles ([13]; Rate 500 g/ha): 90 | Plant response rating, Surinam grass [14, 18]: 20 | Plant response rating, Surinam grass [14, 19]: 75 | Surinam grass plant response rating [14, 20]: 85 | Surinam grass plant response rating [14, 21]: 100 | Plant response rating, Surinam grass ([14]; Rate 250 g/ha): 100 | Plant response rating, Surinam grass ([14]; Rate 500 g/ha): 100 | Plant response rating, Tall Mallow [15, 18]: 30 | Plant response rating, Tall Mallow [15, 19]: 30 | Tall Mallow plant response rating [15, 20]: 80 | Tall Mallow plant response rating [15, 21]: 80 | Plant response rating, Tall Mallow ([15]; Rate 250 g/ha): 90 | Plant response rating, Tall Mallow ([15]; Rate 500 g/ha): 100 | Plant response rating, Green foxtail ([16]; Rate 250 g/ha): 100 | Plant response rating, Green foxtail ([16]; Rate 500 g/ha): 100 | Plant response rating, Green foxtail ([17]; Preemergence; Rate 16 g/ha; 0 to 100 scale, 0 no injury, 100 complete control): 90 | Plant response rating, Green foxtail ([17]; Preemergence; Rate 32 g/ha; 0 to 100 scale, 0 no injury, 100 complete control): 100 | Plant response rating, Green foxtail ([17]; Rate 16 g/ha; Preemergence; 0 to 100 scale, 0 no injury, 100 complete control): 90 | Green foxtail plant response rating [17, 22]: 100 | Plant response rating, Green foxtail [17, 22]: 100 | Green foxtail plant response rating [17, 23]: 100 | Plant response rating, Green foxtail [17, 23]: 100 | Plant response rating, Green foxtail ([17]; Rate 250 g/ha; Preemergence; 0 to 100 scale): 100 | Plant response rating, Green foxtail ([17]; Rate 500 g/ha, Preemergence; 0 to 100 scale): 100
